# From patent US7763604B2, “Methods for administration of a farnesyl dibenzodiazepinone” (Thallion Pharma Ceuticals, Inc., priority 2005, dated 2010)
# Columns and labels:
# [1] = pharmacokinetics and tissue levels after 30 mg/kg bolus IV, IP, SC and PO in mice; format: in vivo, female Crl: CD1 mice
# Method: The compound of formula I was dissolved in ethanol (5%), Polysorbate 80 (15%), PEG 400 (5%) and dextrose (5%) at a final concentration of 6 mg/ml (IV, IP and SC administration). For oral administration, the compound of Formula I was solubilized in Chremophor® EL/Ethanol (50%:50%) at a final concentration of 6 mg/ml. Prior to dosing, animals (female Crl: CD1 mice; 6 weeks of age, 22-24 g) were weighed, randomly selected and assigned to the different treatment groups. The compound of Formula I was administered by the bolus intravenous (IV), bolus subcutaneous (SC), bolus intraperitoneal (IP), or oral (PO) route to the assigned animals. The dosing volume of Formula I was 5 mL per kg body weight. Animals were anesthetized prior to bleeding with 5% isoflurane. Blood was collected into microtainer tubes containing the anticoagulant K2EDTA by cardiac puncture from each of 4 animals per bleeding timepoint (2 min, 5 min, 15 min, 30 min, 1 h, 2 h, 4 h and 8 h). Following collection, the samples were centrifuged and the plasma obtained from each sample was recovered and stored frozen (at approximately −80° C.) pending analysis. At the 5 min and 30 min time points, the following organs were harvested from each animal: brain, lungs, skeletal muscle, fat tissue, kidneys, spleen, thymus and liver. Tissues were frozen (at approximately −80° C.) pending analysis. Samples were analysed by LC/MS/MS.
# Plasma values of the compound of Formula I falling below the limit of quantitation (LOQ) were set to zero. […] The following pharmacokinetic parameters were calculated: area under the plasma concentration versus time curve from time zero to the last measurable concentration time point (AUCO-t), area under the plasma concentration versus time curve extrapolated to infinity (AUCinf), maximum observed plasma concentration (Cmax), time of maximum plasma concentration (tmax), apparent first-order terminal elimination rate constant (kel), apparent first-order terminal elimination half-life will be calculated as 0.693/kel (t1/2). The systemic clearance (CL) of the compound of Formula I after intravenous administration was calculated using Dose/AUCinf. Pharmacokinetic parameters were calculated using Kinetica™ 4.1.1 (InnaPhase Corporation, Philadelphia, Pa.).
# [2] = population pharmacokinetic analysis, rat (IV + CIV); format: in vivo; conditions: population PK
# Method: An analysis was performed to derive allometric equations for Formula I pharmacokinetic parameters using Formula I plasma concentration-time data from three species, including mouse, rat, and monkey, and to estimate human pharmacokinetic parameters from those allometric equations.
# Plasma concentrations of Formula I were obtained from mice, rats, and monkeys following intravenous injection or continuous infusion. Formula I pharmacokinetic parameters in mice, rats, and monkeys were estimated using population pharmacokinetic analysis, a function of the software program NONMEM™ (version 5). Typical population pharmacokinetic parameters for Formula I in humans were extrapolated from allometric equations that were derived from pharmacokinetic parameters estimated in the three animal species.
# A two-compartment model with a first-order elimination from the central compartment adequately described Formula I plasma concentration-time profiles following intravenous bolus injection (30 mg/kg) in mice and rats, 7-day continuous infusion in rats (50 to 170 mg/kg/day), and 14-day continuous infusion in monkeys (5 to 30 mg/kg/day).
# [3] = tested on: P388 murine leukemia cells; assay: murine P388 leukemia model, survival; format: in vivo; conditions: group 2, IV 50 mg/kg in PEG-PG formulation, 10 mice per group
# Method: Formulation: The compound of Formula I is first dissolved in 1 volume of 90% propylene glycol (PG). This is followed by the addition of 2 volumes of 45% polyethylene glycol 400 (PEG 400). The volume ratio of PEG 400/PG/water is respectively 30:30:40. Compound is injected in a volume of 10 mL/kg.
# DBA/2 female mice (6 weeks of age) were injected intraperitoneally (IP) with 1×10^6 P388 murine leukemia cells (day 0). […]
# Mice body weights were recorded twice a week. Lethality and behaviour of animals were recorded every day. […] The results are expressed as percent of mean survival time of treated animals over the mean survival time of the control group (treated vs control, T/C %) and as increase life span (mean survival time of treated animals minus that of control animals over the mean survival time of the control group; ILS %).
# [4] = toxicity of 14-day continuous intravenous infusion in monkeys; format: in vivo; conditions: 14-day CIV
# Method: Cynomolgus monkeys received continuous IV infusion over 14 days of Formula I at 5 mg/kg/day, 15 mg/kg/day, or 30 mg/kg/day. The drug was infused intravenously (24 hours/day) into the femoral vein at a dose rate of 2 ml/kg/hour for 14 consecutive days. Blood samples were removed from each monkey on Days 1, 2, 6, 10, and 15 of the treatment period. Monkeys were bled by venipuncture and samples were collected into tubes containing K2EDTA. On Day 1, samples were collected at 2, 6, and 12 hours after initiation of treatment. Additional samples were collected at 30 hours after the start of infusion (Day 2). On Days 6 and 10, samples were collected at approximately 6 hours after the bag changes. At the end of the 14 days of infusion, on Day 15, samples were collected at 1 hour prior to cessation of dose administration, and at 5 min, 30 min, 1 h, 2 h, 4 h, 8 h, and 24 h following cessation of dose administration.
# [5] = maximum tolerated dose and tolerability of bolus administration in mice; format: in vivo
compound,measurement,setting,value
"CC(C)=CCC/C(C)=C/CC/C(C)=C/CN1C(=O)c2cccc(O)c2Nc2c(O)cc(O)cc21 [Formula I, 10-farnesyl-4,6,8-trihydroxy-dibenzodiazepin-11-one]",peak plasma concentration,[1]; IP bolus 30 mg/kg,7.8 µM
same,time to peak plasma concentration,[1]; IP bolus 30 mg/kg,15 min
same,tissue distribution,"[1]; IV and IP bolus 30 mg/kg, 30 min time point",well distributed
same,drug levels after oral administration,[1]; PO 30 mg/kg,moderate but sustained drug levels
same,peak plasma concentration,[1]; SC bolus 30 mg/kg,2.3 µM
same,time to peak plasma concentration,[1]; SC bolus 30 mg/kg,60 min
same,tissue levels compared with IP,"[1]; SC bolus 30 mg/kg, 30 min time point",significantly lower
same,"t1/2,α","[1]; bolus IV 30 mg/kg, plasma, mice, 30 mg/kg",4.7 min
same,"plasma concentration, initial","[1]; bolus IV 30 mg/kg, start of decline",~425 µM
same,time plasma concentration is maintained at therapeutically relevant levels,"[1]; intraperitoneal and subcutaneous bolus 30 mg/kg, mice",over 8 hours
same,Ke,[2],8.651 h⁻¹
same,mice died one day after treatment due to formulation toxicity,[3],3 mice
same,"degenerative changes in organs, including the infusion site",[4],No degenerative changes
same,"effect on body weight, ocular condition, electrocardiographic activity and other parameters",[4],no effect
same,side effects,[4],"inappetance and a moderate degree of regenerative anemia, were reversible"
same,compound associated toxicity,[4]; 5 to 30 mg/kg/day,no severe compound associated toxicity
same,tolerability finding,[5]; IP bolus dosing,some intestinal occlusion
same,tolerability finding,[5]; SC bolus dosing,swelling and thickening of the skin
